# Measurements published in patent US20090192123A1, “Use of dipyridamole or mopidamole for treatment and prevention of thrombo-embolic diseases and disorders caused by excessive formation of Thrombin and/or by elevated expression of Thrombin receptors” (BOEHRINGER INGELHEIM INTERNATIONAL GMBH, priority 2003, published 2009).
# Columns and labels:
# [1] = system: Thrombin receptor (PAR-1); assay: Thrombin receptor (PAR-1) expression on platelets of post-stroke patients during treatment, flow cytometry with antibodies; assay type: in vivo, human; conditions: for Thrombin receptor (PAR-1) SPAN 12 (intact receptor) / Thrombin receptor (PAR-1) WEDE 15 (cleaved receptor): platelets of stroke patients, relative number, mean ± SD; for Change of intact (complete) and cleaved Thrombin receptor expression on platelets, in words: stroke patients, course of treatment of 30 days / one month, platelets ex vivo
# Method: In order to study the inhibition of Thrombin receptor expression, patients surviving a stroke have been treated with conventional antiplatelet therapy (oral ASA) or a combination of Dipyridamole and ASA (Aggrenox) and thrombin receptor expression was measured during the course of treatment of one month. The expression of the complete as well as the cleaved Thrombin receptor was measured by flow cytometry using well established antibody technology on platelets after venipuncture.
# Inhibition of Thrombin Receptor Expression in Platelets—by the Dipyridamole
# Table 1 represents the mean and standard deviation of the relative numbers of expressed intact as well as cleaved Thrombin receptors on platelets over time after initiation of treatment with either ASA or the combination of Dipyridamole and ASA.
# [2] = ESPS-2 clinical study, compared with low-dose aspirin / aspirin alone; cited from earlier work
# [3] = Baseline (n = 15), flow cytometry
Compound,Thrombin receptor (PAR-1) SPAN 12 (intact receptor) ([1]; 24 hr of treatment (n = 15)),Thrombin receptor (PAR-1) WEDE 15 (cleaved receptor) ([1]; 24 hr of treatment (n = 15)),Thrombin receptor (PAR-1) SPAN 12 (intact receptor) ([1]; 3 days of treatment (n = 15)),Thrombin receptor (PAR-1) WEDE 15 (cleaved receptor) ([1]; 3 days of treatment (n = 15)),Thrombin receptor (PAR-1) SPAN 12 (intact receptor) ([1]; 7 days of treatment (n = 15)),Thrombin receptor (PAR-1) WEDE 15 (cleaved receptor) ([1]; 7 days of treatment (n = 15)),Thrombin receptor (PAR-1) SPAN 12 (intact receptor) ([1]; 15 days of treatment (n = 14)),Thrombin receptor (PAR-1) WEDE 15 (cleaved receptor) ([1]; 15 days of treatment (n = 14)),Thrombin receptor (PAR-1) SPAN 12 (intact receptor) ([1]; 30 days of treatment (n = 12)),Thrombin receptor (PAR-1) WEDE 15 (cleaved receptor) ([1]; 30 days of treatment (n = 12)),"Thrombin receptor (PAR-1) SPAN 12 (intact receptor) [1, 3]","Thrombin receptor (PAR-1) WEDE 15 (cleaved receptor) [1, 3]","Change of intact (complete) and cleaved Thrombin receptor expression on platelets, in words [1]","Reduction of stroke risk, in words [2]"
"CC(=O)Oc1ccccc1C(=O)O [ASA, acetylsalicalic acid]",37 ± 7,21.9 ± 4.6,28 ± 9,15.3 ± 3.3,24 ± 5,17.1 ± 6.1,26 ± 4.*,16.9 ± 7.5,22 ± 7,14.2 ± 5.0,34 ± 7,21.0 ± 5.3,mild reduction,
"OCCN(CCO)c1nc(N2CCCCC2)c2nc(N(CCO)CCO)nc(N3CCCCC3)c2n1 [Dipyridamole, 2,6-bis(diethanolamino)-4,8-dipiperidino-pyrimido[5,4-d]pyrimidine]",,,,,,,,,,,,,significant reduction,as effective as low-dose aspirin
